Test results: patent US8594942B2, “Computational method and system for identifying network patterns in complex biological systems data” (Metabolon, Inc., priority 2004, dated 2013)
“Also recorded” adds a separate entry of the source.

What was measured:
[1] = system: rats; settings: cited from earlier work
[2] = system: Male Fischer 344 rats; assay: Acetaminophen-induced liver toxicity study: biochemical profiling (LC-MS) of rat liver; format: in vivo; settings: rat liver metabolite, single dose p.o.
Description: An acetaminophen-induced liver toxicity study was performed as follows. Male Fischer 344 rats were administered a single dose of acetaminophen (APAP) at 0, 50, 150, 1500 or 2000 mg/kg p.o. (6 rats per group). The 150 mg/kg dose is equivalent to a low overdose level in humans (˜10 g) and 1500 mg/kg is a low toxic dose in rats. The rats were sacrificed at 6, 18, 24, and 48 hr post dosing. Livers of the rats were processed for biochemical profiling, histopathology and gene expression analysis. For the 0, 50 and 1500 mg/kg dose groups, rat urine was collected at −24-0, 0-6, 6-24, and 24-48 hr relative to dosing. Similarly, rat serum was collected at 48 hr for the 0, 50 and 1500 mg/kg groups.
Rat tissue was prepared for LC-MS analysis as follows. Rat liver tissue samples were frozen upon collection. A slice of each frozen sample was placed into a mortar, covered with liquid nitrogen, and ground with a pestle. 100 mg of ground sample was placed in a cryovial, extraction fluid and beads were added, and the sample was further ground and then centrifuged. The supernatant was transferred to a clean cryovial, centrifuged again, and then transferred to a well of a 96-well plate.
LC-MS analysis of the rat tissue and biofluid samples was performed on an Applied Biosystems Mariner liquid chromatograph coupled with a time of flight mass spectrometer (LC-TOF). The mass resolution for the mass spectrometer employed in this experiment was 0.200 amu. One LC was employed with a splitter that allowed for the eluent to be delivered to two TOF MS instruments, one operating in positive ionization mode, the other in negative ionization mode. Compounds detected by LC-MS with an electrospray ion source were cataloged based on retention times and mass-to-charge ratio (m/z) of the ions characteristic of each peak. Mass spectrometric data were collected from 80-900 amu. Raw LC-MS data were processed using the commercially available software TARGETDB (Thru-Put Systems, Inc., Orlando, Fla.).
A targeted list of relative responses for peaks and peaks annotated as known compounds was produced from the LC/MS data for the rat liver samples described in Example 1 and is illustrated in FIG. 1. The resulting biochemical profiling data was subjected to Principal Component Analysis (PCA), showing trends over both dose and time (see FIG. 2). The third principal component (x-axis) is plotted against the second principal component (y-axis) for each of the 6, 18, 24 and 48 hr time points for acetaminophen doses 150 mg/kg (yellow), 1500 mg/kg (black), and 2000 mg/kg (green). Each data point represents the average for six animals.
Mathematical models of the trends observed in the PCA plot were developed. […] Trend 1 is a trend of increasing distance from control as the dose increases at any given time point. Trend 2 is a trend of change from one time point to the next that is in the same direction and of increasing magnitude as dose increases. Each of the relative response peaks in the liver biochemical profiling dataset was tested for adherence to the mathematical models to locate the subset of peaks that followed the observed trends. The peaks that adhered to the models were identified as the subset of most interest for further analysis of acetaminophen-induced liver changes. To further investigate the mode of action of acetaminophen, the known compounds in the identified subset were further analyzed using the methods and systems of the present invention.
Using the methods and systems of the present invention, another graph was generated depicting the 15 components of interest, from Example 3 above, that were closely related enough to fit on a single graph. […] It should be noted that not only is the perturbation of the 15 compounds of interest depicted in FIG. 5, but the experimental result from any compound measured and depicted in the network of FIG. 5 is shown. […]

CC(=O)Nc1ccc(O)cc1 [acetaminophen]
low toxic dose in rats [1]: 1500 mg/kg | Status of L-asparagine ([2]; FIG. 5 network component 2): Down Regulated | Status of ‘N’-acetyl-“b”-D-glucosamine ([2]; FIG. 5 network component 7): Down Regulated | Status of “a”-ketoglutarate ([2]; FIG. 5 network component 8): Down Regulated | Status of L-glutamine ([2]; FIG. 5 network component 10): Down Regulated | Status of L-arginine ([2]; FIG. 5 network component 14): didn't undergo a significant change; also recorded: No Significant Change | Status of L-cystathionine ([2]; FIG. 5 network component 17): Down Regulated | Status of “a”-hetobutyrate ([2]; FIG. 5 network component 18): Down Regulated | Status of L-cysteine ([2]; FIG. 5 network component 19): Down Regulated | Status of L-serine ([2]; FIG. 5 network component 21): Down Regulated | Status of “o”-phosphoethanolamine ([2]; FIG. 5 network component 23): Up Regulated | Status of (‘S)-lactate ([2]; FIG. 5 network component 25): Down Regulated | Status of Pyruvate ([2]; FIG. 5 network component 26): Down Regulated | Status of Phospho‘enol’pyruvate ([2]; FIG. 5 network component 29): No Significant Change | Status of GTP ([2]; FIG. 5 network component 30): Down Regulated | Status of GDP ([2]; FIG. 5 network component 31): didn't undergo a significant change; also recorded: No Significant Change | Status of Phenylpyruvate ([2]; FIG. 5 network component 32): Up Regulated | Status of L-phenylalanine ([2]; FIG. 5 network component 33): Down Regulated | Status of L-tyrosine ([2]; FIG. 5 network component 34): Down Regulated | Status of L-dopa ([2]; FIG. 5 network component 35): Down Regulated | Status of glutathione ([2]; FIG. 5 network component 37): Up Regulated
